In patent US20030220310A1, “Epoxy-steroidal aldosterone antagonist and calcium channel blocker combination therapy for treatment of congestive heart failure” (priority 2003, published 2003):
Several values for one entry are separate records, joined by “and”; a condition that tells them apart may be missing. Equal values may be shown once.

Columns and labels:
[1] = test system: rats with ligated left anterior descending coronary artery; assay: Assay D: Myocardial Infarction Rat Model; type: in vivo; details: combination of calcium channel blocker and epoxymexrenone versus either component alone, after six weeks
Method: Assay “D”: Myocardial Infarction Rat Model: Male rats are anesthetized and the heart is exteriorized following a left sided thoracotomy. The left anterior descending coronary artery is ligated with a suture. The thorax is closed and the animal recovers. Sham animals have the suture passed through without ligation. One week prior to the surgery, animals to undergo infarction are divided into separate groups and drug treatment is begun. Groups of animals are administered vehicle, calcium channel blocker alone, epoxymexrenone alone, and combinations of calcium channel blocker and epoxymexrenone, at various doses, as follow: [table] After six weeks, systolic and diastolic blood pressure, left ventricular end diastolic pressure, left ventricular dP/dt, and heart rate are evaluated. The hearts are removed, weighed, measured and fixed in formalin. Collagen content of heart sections are evaluated using computerized imaged image analysis of picrosirius stained sections.

[2] = X-ray powder diffraction, Form H content of dried solids; type: physicochemical; details: for Form H Peak Area 12° Two Theta Peak / Estimated Weight Percent of Form H: methyl ethyl ketone solvate dried at 100° C.
[3] = 3% diepoxide in starting eplerenone mixture
[4] = 10% 11,12-epoxide in starting eplerenone mixture

In the case of COC(=O)[C@@H]1CC2=CC(=O)CC[C@]2(C)C23O[C@@H]2C[C@@]2(C)[C@@H](CC[C@@]24CCC(=O)O4)[C@H]13 (stereo partly drawn) [eplerenone, Pregn-4-ene-7,21-dicarboxylic acid, 9,11-epoxy-17-hydroxy-3-oxo-,γ-lactone, methyl ester, (7α,11α,17β)-], the cardiac performance [1] is reported as “improvements in cardiac performance”, the “Form H Peak Area 12° Two Theta Peak” value ([2]; 1% 11,12-epoxide in starting eplerenone mixture) is reported as “None Detected” and the “Estimated Weight Percent of Form H” value [2, 3] is reported as 10%. For the same compound, the “Form H Peak Area 12° Two Theta Peak” value [2, 3] was 1168, the “Form H Peak Area 12° Two Theta Peak” value ([2]; 5% diepoxide in starting eplerenone mixture) was 4175 and the “Estimated Weight Percent of Form H” value [2, 4] was 10-15%. The “Form H Peak Area 12° Two Theta Peak” value [2, 4] was 1541, the “Weight Percent Form H” value ([2]; Cooling Rate High, End Point High, Impurity Level High, High Fluid Bed drying) was 25% and the “Weight Percent Form H” value ([2]; Cooling Rate High, End Point High, Impurity Level High, Low Fluid Bed drying) was 4.7%. For the same compound, the “Weight Percent Form H” value ([2]; Cooling Rate High, End Point High, Impurity Level High, Vacuum Oven drying) was 29%, the “Weight Percent Form H” value ([2]; Cooling Rate Low, End Point Low, Impurity Level Low, Low Fluid Bed drying) was 5.5% and the “Weight Percent Form H (XPRD)” value ([2]; cooling rate (0) 1.5° C./min., endpoint (0) 25° C., 100.8% eplerenone seeded with Form H, analyzed by XPRD) was 77 Weight Percent. For the same compound, the “Weight Percent Form H (XPRD)” value ([2]; cooling rate (0) 1.5° C./min., endpoint (0) 25° C., impurity level (0) = 100.8% purity eplerenone starting material as printed, three runs) was 5 Weight Percent and <3% Weight Percent, the “Weight Percent Form H (XPRD)” value ([2]; cooling rate (+) 3° C./min., endpoint (+) 45° C., impurity level (+) 89.3% purity eplerenone starting material) was 29 Weight Percent and the “Weight Percent Form H (XPRD)” value ([2]; cooling rate (+) 3° C./min., endpoint (−) 5° C., impurity level (+) 89.3% purity eplerenone starting material) was 9 Weight Percent. For the same compound, the “Weight Percent Form H (XPRD)” value ([2]; cooling rate (−) 0.1° C./min., endpoint (+) 45° C., impurity level (+) 89.3% purity eplerenone starting material) was 31 Weight Percent.
